Here are results for 13 compounds from patent publication US9029381B2, “Cyclopropyl amide derivatives” (Astrazeneca AB, priority 2007, dated 2015).

As usually defined, the IC50 is the midpoint of a concentration-inhibition curve. The low end stands for greater potency in that assay, the high end for weaker potency in that assay.

Assay [1] addresses human Histamine H3 receptor (hH3R) (Homo sapiens (Human), UniProt Q9Y5N1). Briefly: Guanosine 5'-O-(3-[35S]thio)triphosphate [GTPγS] binding assay. The settings on record: antagonist mode vs (R)-α-methyl histamine 30 nM; membranes from CHO cells expressing hH3R. In kind it is biochemical. As for the experimental part:
(§1) The IC50 and nH can be determined by fitting the data to model 205 in XLfit: y=A+((B−A)/(1+((C/x)^D)). Guanosine 5′-O-(3-[^35S]thio)triphosphate [GTPγS] Binding Assay
A GTPγS binding assay can be used to investigate antagonist properties of compounds in CHO cells (Chinese Hamster Ovary) transfected with human Histamine H3 receptor (hH3R). Membranes from CHO cells expressing hH3R (10 μg/well) are diluted in GTPγS assay buffer (20 mM Hepes, 10 mM MgCl2, 100 mM NaCl, pH 7.4) and preincubated with saponine (3 μg/ml), GDP (10 μM) and PVT-WGA SPA beads (125 μg/well) (Amersham) for 30 minutes. To determine antagonist activity, (R)-α-methyl histamine (30 nM) is added in 96 well SPA plate with [^35S]GTPγS (0.2 nM) and various concentration of H3R antagonists. The GTPγS binding assay is started with addition of the mixture membrane/saponine/GDP and incubated for 90 minutes at room temperature. The amount of bound [^35S]GTPγS is determined by using the MicroBeta Trilux counter (PerkinElmer). The percentage of [^35S]GTPγS bound in each sample is calculated as a percentage of that bound control sample incubated in absence of H3 antagonist. Duplicate determinations are obtained for each concentration, and the data are analyzed using ExcelFit4 to obtain the IC50.
(Binding of GTPγS marks nucleotide exchange on a G protein.)

In assay [2] the target is human histamine H3 receptors (Homo sapiens (Human), UniProt Q9Y5N1). Briefly: Histamine H3 SPA with the agonist radioligand [3H]-N-α-methylhistamine (hH3 binding). The settings on record: inhibition of [3H]-N-α-methylhistamine (1.4 nM) binding to CHO-K1 membranes expressing full-length human H3 (isoform 445). As for the experimental part:
Histamine H3 SPA with the Agonist Radioligand [^3H]-N-α-Methylhistamine
The H3 binding assay was/can be used to evaluate the ability of at least one compound in accordance with formula I, Ia, Ib, and/or Ic to inhibit [^3H]-N-α-methylhistamine binding to CHO-K1 membranes expressing human histamine H3 receptors (full-length H3, the most prevalent brain isoform 445). In 200 μl 96-well SPA format, human H3 membranes (12.5 μg protein/well) and 1.4 nM [^3H]-N-α-methylhistamine were/can be incubated with at least one compound in accordance with formula I, Ia, Ib, and/or Ic for 1.5 hrs to determine percent effect with respect to total (1% DMSO) and non-specific binding (10 μM imetit). […] Single poke (SP) testing can be done in triplicate.
Membranes, prepared from CHO-K1 cells stably expressing the human histamine H3 receptor, can be obtained from ACS.
Tested formula I, Ia, Ib, and/or Ic compounds were/can be provided as solubilized samples in neat DMSO. Serial dilutions were/can be performed in DMSO.
Plates were/can be 96-well Unifilter GF/B (Perkin Elmer, 6005177). Plates were/can be read on a Perkin Elmer TopCount. CPM data was/can be used to analyze unless DPM data generated by a quench curve was/is required.
• 1. 1 mg/ml BSA was/can be added to assay buffer (AB) on day of assay. • 2. Amounts required for bead/membrane pool in AB were/can be calculated: “P”−need 17.1 ml/assay plate+10 ml PlateMate excess. Buffer volume was/can be split between beads and membranes to allow for polytroning of membranes prior to addition to beads. • a. […] A minimum of 15 minutes was/can be waited prior to adding membranes (See b. below). • b. Membranes (hH3 membranes from CHO cells containing recombinant human H3 receptors, 11.7 mg/ml): membranes were/can be removed from −80° C. and thawed in RT waterbath. (0.0702 mg/ml×P) mg of membranes were/can be resuspended in the remaining volume not used with beads above for 12.5 μg/well final and homogenized briefly at polytron speed 5.0. The homogenized membrane mixture was/can be combined with the beads and a minimum of 30 minutes was/can be waited prior to dispensing to plate. • 3. Formula I, Ia, Ib, and/or Ic compounds: For Single Poke, 2 μl mM of a compound in accordance with formula I, Ia, Ib, and/or Ic was/can be dispensed to Optiplates (triplicate plates) for final a concentration of 10 μM. […] Imetit (see below) was/can be used as a control. • 4. […] [^3H]-N-α-methylhistamine ([^3H]-NAMH): A solution in AB at 14 nM, 10× final concentration of 1.4 nM was/can be prepared. 5 μl samples were/can be calculated in quadruplicate on the 13 counter. If concentration was/is 12-14.5 nM, no adjustment was/is may be required. (For IC50s, use final concentration on calculation tab of ABase template.) Assay • 1. […] 2 μl of the formula I, Ia, Ib, and/or Ic compound dilution was/can be mixed and then transferred into assay plates. DMSO was/can be removed and 2 μl of 100 μM Imetit was/can be added to the wells. • 3. 178 μl bead/membrane mixture was/can be dispensed into the assay plate. • 4. 20 μl [^3H]-NAMH was/can be added with Rapid Plate. The assay plate was/can be sealed and incubated for 1.5 hr on RT shaker at speed ˜6.5. • 5. The assay plate was/can be subsequently centrifuged at 1000 rpm for 10 minutes. • 6. The count was/can be performed on TopCount using one of the 3H SPA H3 Quench programs.
The DPM data was/can be analyzed when tSIS was/is less than that associated with 70% of full scale on the quench curve (tSIS<25%). Otherwise, CPM data was/is used.
as §1

Sequence of human histamine H3 receptors (Q9Y5N1 whole entry, canonical isoform): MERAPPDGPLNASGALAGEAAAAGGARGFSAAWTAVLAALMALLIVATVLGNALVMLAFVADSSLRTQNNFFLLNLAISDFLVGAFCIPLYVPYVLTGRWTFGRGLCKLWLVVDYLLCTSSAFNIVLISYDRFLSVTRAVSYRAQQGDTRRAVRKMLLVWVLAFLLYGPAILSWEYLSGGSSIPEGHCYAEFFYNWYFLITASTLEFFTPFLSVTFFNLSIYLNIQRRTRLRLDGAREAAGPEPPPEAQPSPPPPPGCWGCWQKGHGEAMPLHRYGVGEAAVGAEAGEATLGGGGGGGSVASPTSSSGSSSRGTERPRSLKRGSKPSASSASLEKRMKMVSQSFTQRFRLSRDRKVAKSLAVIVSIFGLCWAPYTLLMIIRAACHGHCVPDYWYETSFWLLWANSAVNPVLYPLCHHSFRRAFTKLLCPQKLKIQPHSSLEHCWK
Sequence of human Histamine H3 receptor (hH3R) (Q9Y5N1 whole entry): as the sequence (Q9Y5N1 whole entry, canonical isoform) above

On to `CCCN1CCN(C(=O)[C@H]2C[C@@H]2c2ccccc2)CC1` (relative stereo) [Example 7, trans-(2-Phenylcyclopropyl)-(4-propylpiperazin-1-yl)methanone], for which the values for the half-maximal inhibitory concentration (IC50) in assay [1] and in assay [2] were 0.0397 µM and 0.146 µM, respectively.
For `O=C([C@H]1C[C@@H]1c1ccc(N2CCCC2=O)cc1)N1CCN(C2CCC2)CC1` (relative stereo) [Example 17, trans-1-{4-[2-(4-Cyclobutylpiperazine-1-carbonyl)cyclopropyl]phenyl}pyrrolidin-2-one], in that order: 0.197 µM and 0.433 µM.
For `O=C([C@H]1C[C@@H]1c1ccc(-c2cn[nH]c2)cc1)N1CCN(C2CCC2)CC1` (relative stereo) [Example 20, trans-{2-[4-(1H-Pyrazol-4-yl)phenyl]cyclopropyl}-(4-cyclobutylpiperazin-1-yl)methanone], in that order: 0.0339 µM and 0.0291 µM.
For `O=C([C@H]1C[C@@H]1c1cccc(N2CCCC2=O)c1)N1CCN(C2CCC2)CC1` (relative stereo) [Example 34, trans-1-(3-(2-(4-Cyclobutylpiperazine-1-carbonyl)cyclopropyl)phenyl)pyrrolidin-2-one], in that order: 0.0239 µM and 0.00509 µM.
`NC(=O)c1ccc([C@@H]2C[C@H]2C(=O)N2CCN(C3CCC3)CC2)cc1` (relative stereo) [Example 42, 4-((trans)-2-(4-cyclobutylpiperazine-1-carbonyl)cyclopropyl)benzamide]: the concentration for half-maximal inhibition (IC50) in assay [1] was 0.00583 µM; in assay [2], 0.0144 µM.
For the compound `O=C([C@@H]1C[C@H]1c1cccc(N2CCCCC2=O)c1)N1CCN(C2CCC2)CC1` (single isomer, unassigned; enantiomer 2) [Example 41, 1-(3-((trans)-2-(4-cyclobutylpiperazine-1-carbonyl)cyclopropyl)phenyl)piperidin-2-one, enantiomer 2], the IC50 in assay [1] stood at 0.733 µM.
Still for that read-out and setting: with `NC(=O)c1ccc([C@@H]2C[C@H]2C(=O)N2CCN(C3CCC3)CC2)cc1` (single isomer, unassigned; enantiomer 2) [Example 44, 4-((trans)-2-(4-cyclobutylpiperazine-1-carbonyl)cyclopropyl)benzamide, enantiomer 2] the figure was 0.834 µM.
Turning to `O=C([C@H]1C[C@@H]1c1ccc(Br)cc1)N1CCN(C2CCC2)CC1` [Example 14, (1S,2S)-(2-(4-bromophenyl)cyclopropyl)(4-cyclobutylpiperazin-1-yl)methanone], the figures for the IC50 in assay [1] and in assay [2] were 0.00681 µM and 0.0168 µM, respectively.
With `O=C([C@@H]1C[C@H]1c1ccc(Br)cc1)N1CCN(C2CCC2)CC1` [Example 15, (1R,2R)-(2-(4-bromophenyl)cyclopropyl)(4-cyclobutylpiperazin-1-yl)methanone], the IC50 is 0.262 µM in assay [1] and 3.4 µM in assay [2].
Regarding `O=C([C@H]1C[C@@H]1c1ccccc1)N1CCN(C2CCC2)CC1` [Example 24, (4-cyclobutylpiperazin-1-yl)((1S,2S)-2-phenylcyclopropyl)methanone], the IC50 was determined as 0.00341 µM in assay [1] and 0.00349 µM in assay [2].
Taken in the same sequence, the figures for `O=C([C@@H]1C[C@H]1c1ccccc1)N1CCN(C2CCC2)CC1` [Example 25, (4-cyclobutylpiperazin-1-yl)((1R,2R)-2-phenylcyclopropyl)methanone] were 0.87 µM and 6.42 µM.
As to `CC(C)N1CCN(C(=O)C2CC2c2cnn(C)c2)CC1` (stereo not shown) [Example 45, (4-isopropylpiperazin-1-yl)(2-(1-methyl-1H-pyrazol-4-yl)cyclopropyl)methanone], in assay [1], the IC50 was found to be 0.127 µM.
`O=C([C@H]1C[C@@H]1c1ccc(-c2cncnc2)cc1)N1CCN(C2CCC2)CC1` [Example 46, (4-cyclobutylpiperazin-1-yl)((1S,2S)-2-(4-(pyrimidin-5-yl)phenyl)cyclopropyl)methanone] gave an IC50 in assay [1] of 0.0202 µM. Against the preceding compound, the IC50 is about 6.3-fold lower.
